Experimental data as given in patent US20030186943A1, “Substituted gamma-phenyl-delta-lactams and uses related thereto” (Inflazyme Pharmaceuticals Ltd., priority 1998, published 2003).
Several values for one entry are separate records, joined by “and”; a condition that tells them apart may be missing. Equal values may be shown once.

What was measured:
[1] = tested on: K562 chronic myelogenous leukemia cells; assay: Anti-proliferative activity in K562 cells (3H-thymidine uptake); format: cell-based, human; conditions: for IC50: Homo sapiens, K562, 48 hours, 3H-thymidine, X marks this range, read-out: IC50 range (μM) >50
Method: 90 μL K562 cells (human chronic myelogenous leukemia cells) were seeded into sterile 96-well assay plates at a density of 1×10^5 cells/mL in RPMI 1640 supplemented with 10% FBS/2 mM L-glutamine. Samples to be tested were prepared in a sterile 96-well assay plate at 10×the final concentration desired. All sample dilutions contained equal amounts of DMSO to compensate for the % DMSO in the highest sample concentration used. Nine concentrations of test compound were examined for effects on growth up to a maximal concentration of 100 μM. 10 μL of the samples and controls (DMSO/normal growth control) were added to the aliquoted cells. The cells were incubated at 37° C./5% CO2 for 48 hours. Following 48 hour incubation, 20 μL of 3H-thymidine was added to each well for a final concentration of 1 μCi/mL. The cells were then incubated at 37° C./5% CO2 for 4 to 6 hours. Following 4-6 hour thymidine pulse, plates were wrapped in plastic and frozen in a −20° C. frost-free freezer overnight. Cells were harvested and ^3H-thymidine counts determined. In order to distinguish between cytotoxicity and cytostatic activity, growth curves were prepared where the average CPM value of the seeding density of cells was plotted on the same curve as the average CPM value for the maximum proliferation attained after 48 hours (DMSO growth control cells). The cells were diluted 1:2 for a concentration range of 7.8×10^3 cells/mL to 2×10^6 cells/mL. 90 μL of each cell dilution was seeded in sterile 96-well assay plated and allowed to equilibrate for approximately 4 hours at 37° C./5% CO2 prior to ^3H-thymidine pulse. The data in Table 15 was obtained as described above, and more specifically, K562 cells were seeded into 96-well plates at 1×10^5 cells/mL in RPMI 1640 supplemented with 10% FBS/2 mM L-glutamine. Various concentrations of test compound or vehicle (DMSO) was added and the cells were incubated at 37° C./5 CO2 for 48 hours. The cells were then pulsed at 37° C./5% CO2 for 4 to 6 hours with 1 μCi/mL ^3H-thymidine. Radioactivity incorporated into DNA was determined after harvesting onto glass fiber filters and scintillation counting.

[2] = tested on: TNBS-induced colitis in the rat; assay: TNBS-induced colitis model of inflammatory bowel disease in the rat; conditions: for MPO Activity (U/mg): colonic tissue;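 for all read-outs here: rat colitis induced by intracolonic TNBS in 50% ethanol, distal colon assessed at sacrifice on day 7, with saline-instilled vehicle-treated rats as controls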
Method: Colitis was induced by intracolonic instillation of the hapten TNBS (60 mg/mL) in 0.5 mL of 50% ethanol. […] An additional group of rats received saline intracolonically in place of TNBS/ethanol and was treated with vehicle at the same times as outlined above. Body weights were recorded at the beginning of the study and at days 2 and 7.
The rats were sacrificed on the 7th day after the induction of colitis and the extent of damage and inflammation was assessed. After the rats were sacrificed, the distal colon was removed and pinned out on a wax platform. The presence or absence of diarrhea was noted, as well as the presence and severity of adhesions between the colon and other organs, and the severity and extent of colonic damage. […] After scoring, a sample of colonic tissue was excised for measurement of myeloperoxidase activity as an index of granulocyte infiltration (see Wallace et al., Gastroenterology 117: in press, 1999; and Morris et al., Gastroenterology 96:795-803, 1989). This tissue sample was 1 cm long (along the axis of the colon) and 5 mm wide and was taken from a region of macroscopically visible damage (or the corresponding region in any rats in which there was no damage). The remainder of the tissue was fixed in neutral buffered formalin and processed by routine methods for subsequent evaluation by light microscopy. In a blinded manner, the sample of colonic tissue from each rat was examined for evidence of mucosal ulceration and inflammation. The percentage of the luminal surface of the section in which ulceration was present was calculated.

Th1 cells = assay: Proliferation of differentiated Th1 CD4+ T cells; format: cell-based, mouse; conditions: CD4+ T cells already differentiated into Th1 phenotype
Method: The differentiation of naive CD4 T cells toward Th1 and Th2 lineages was performed as follows: 1×10^5 AND-lymph node T cells were cultured with […] B10.BR irradiated spleen cells in 2 ml of culture media with the following supplements: for Th1 cell differentiation, 100 U/mL IFNγ, 25U/mL IL2 and 10 ug/mL anti-IL4; for Th2 cell differentiation, 150 U/mL IL4, 25 U/mL IL2 and 10 ug/mL anti-IFNγ. After 3-4 days the wells were split 1:4 with the same additions. After 7 days the cells were harvested and washed 3 times to remove cytokines in the supernatents. 1×10^5 cultured cells were restimulated with 5×10^5 irradiated B10BR spleen cells +5 μM pcc peptide in 250 μl culture media without any added cytokines. The supernatents were harvested after 40 hrs and assessed for IL2, IL4 and IFNγ by ELISA. Test compounds were added throughout the differentiation of the culture.
Cultured Th1 and Th2 cells generated in the absence of test compounds were tested for proliferation and cytokine activity as described above during antigen stimulation in the presence of compound.

[3] = tested on: T1, High Affinity Rolipram Binding Site of PDE4 in Mouse Brain; assay: Displacement of [3H]-rolipram from its high affinity binding site (HARBS)
T1 construct: other: mouse brain membranes, [3H]-Rolipram; X marks this range; other: mouse brain membranes, [3H]; Suspension was centrifuged twice at 30,000×G at 4° C. and the supernatant discarded

[4] = tested on: mixed-lymphocyte-reaction; assay: One way and two way mixed-lymphocyte-reaction (MLR); format: cell-based; conditions: read-out: inhibition of proliferation in MLR
[5] = 10 mg/kg intracolonically at 12 h intervals for one week, day 7

**Q.** How did the IC50 [1] turn out when `COc1ccc([C@@H]2CCC(=O)OC2)cc1OC1CCCC1` [Compound 41] was run?
**A.** The IC50 was > 50 µM.

**Q.** With `COc1ccc(C2CNC(=O)C2)cc1OC1CCCC1` (stereo not shown) [Rolipram, reference compound] as the compound, how does the “effect on proliferative ability / cell cycle of K-562 cells” value [1] read?
**A.** Its value is “failed to have any effect”.

**Q.** And the IC50 [1]?
**A.** The IC50 was > 50 µM.

**Q.** How did the “colonic damage score (% of vehicle)” value ([2]; 10 mg/kg) turn out when `COc1cc(CC2C[C@@H](c3ccc(OC)c(OC4CCCC4)c3)COC2=O)ccc1O` (stereo partly shown) [Compound 43] was run?
**A.** The value was 49 % of vehicle.

**Q.** What about the “histological score (% of control)” value ([2]; 10 mg/kg) of the same compound?
**A.** The value was 52 % of control.

**Q.** What about the “incidence of adhesions (% of vehicle)” value ([2]; 10 mg/kg) of the same compound?
**A.** Its value is 36 % of vehicle.

**Q.** And the “thickness of the bowel wall (% of vehicle)” value ([2]; 10 mg/kg)?
**A.** Its value is 30 % of vehicle.

**Q.** And the “total reduction in the global colitis score compared to vehicle treated animals” value ([2]; 10 mg/kg)?
**A.** The value was 51%.

**Q.** And the Mortality ([2]; 10 mg/kg intracolonically at 12 h intervals for one week)?
**A.** Its Mortality is 0/8.

**Q.** What about the “Adhesion (Incidence)” value [2, 5] of the same compound?
**A.** The value was “(3/8)^ζ”.

**Q.** What about the “Adhesion Score” value [2, 5] of the same compound?
**A.** Its value is 0.5 ± 0.3.

**Q.** And the “Bowel Thickness (mm)” value [2, 5]?
**A.** Its value is 1.67 ± 0.28 mm.

**Q.** And the “Damage Score” value [2, 5]?
**A.** Its value is 3.4 ± 0.9.

**Q.** And the “Global Colitis Score” value [2, 5]?
**A.** The value was 5.86 ± 1.35.

**Q.** And the “MPO Activity (U/mg)” value [2, 5]?
**A.** The value was 65.1 ± 8.6 U/mg.

**Q.** What about the “MPO Activity (U/mg)” value ([2]; 10 mg/kg intracolonically at 12 h intervals for one week, day 7, 10 mg/kg) of the same compound?
**A.** The value was “not prevented”.

**Q.** And the Diarrhea ([2]; incidence, 10 mg/kg intracolonically at 12 h intervals for one week, day 7, 10 mg/kg)?
**A.** The Diarrhea was “not statistically significant and 3/8”.

**Q.** And the “Histology Score” value ([2]; percentage of luminal surface ulcerated, 10 mg/kg intracolonically for one week, day 7)?
**A.** Its value is 50.6 ± 10.5.

**Q.** What about the “inhibition of Th1 cells” value (Th1 cells) of the same compound?
**A.** Its value is “approx. 30%”.

**Q.** And the “times less potent than rolipram for interaction with the HARBS conformer of PDE4” value [3]?
**A.** The value was “approximately 28 fold”.

**Q.** And the IC50 ([3]; read-out: IC50 for displacement of 3H-rolipram from high-affinity binding site (HARBS activity), mouse brain)?
**A.** Its IC50 is 250 nM.

**Q.** And the inhibition at 20 µM [4]?
**A.** Its inhibition at 20 µM is ≥ 50%.
